Reference: ChEMBL document CHEMBL3046407, “Toxicity of monoterpenes against larvae and adults of Colorado potato beetle, Leptinotarsa decemlineata Say (Coleoptera: Chrysomelidae)” (2007)

Tests used:
Assay type in all cases: functional
[1] = test system: Sitophilus granarius; assay: Insecticidal activity against Sitophilus granarius (granary weevil) assessed as mortality
[2] = test system: Leptinotarsa decemlineata; assay: Insecticidal activity against second-instar larval stage of Leptinotarsa decemlineata infested potato leaves assessed as mortality at 20 ul after 96 hr (reference value: 3.3 +/- 3.3%)
[3] = test system: Leptinotarsa decemlineata; assay: Insecticidal activity against second-instar larval stage of Leptinotarsa decemlineata infested potato leaves assessed as mortality at 20 ul after 48 hr (reference value: 3.3 +/- 3.3%)
[4] = test system: Leptinotarsa decemlineata; assay: Insecticidal activity against second-instar larval stage of Leptinotarsa decemlineata infested potato leaves assessed as mortality at 20 ul after 24 hr (reference value: 3.3 +/- 3.3%)
[5] = test system: Leptinotarsa decemlineata; assay: Insecticidal activity against second-instar larval stage of Leptinotarsa decemlineata infested potato leaves assessed as mortality at 10 ul after 12 hr relative to control
[6] = test system: Leptinotarsa decemlineata; assay: Insecticidal activity against adult Leptinotarsa decemlineata infested potato leaves assessed as mortality at 20 ul after 96 hr relative to control
[7] = test system: Leptinotarsa decemlineata; assay: Insecticidal activity against adult Leptinotarsa decemlineata infested potato leaves assessed as mortality at 20 ul after 48 hr relative to control
[8] = test system: Leptinotarsa decemlineata; assay: Insecticidal activity against adult Leptinotarsa decemlineata infested potato leaves assessed as mortality at 20 ul after 24 hr relative to control
[9] = test system: Leptinotarsa decemlineata; assay: Insecticidal activity against adult Leptinotarsa decemlineata infested potato leaves assessed as mortality at 20 ul after 12 hr relative to control
[10] = test system: Leptinotarsa decemlineata; assay: Insecticidal activity against adult Leptinotarsa decemlineata infested potato leaves assessed as mortality at 10 ul after 96 hr relative to control
[11] = test system: Leptinotarsa decemlineata; assay: Insecticidal activity against adult Leptinotarsa decemlineata infested potato leaves assessed as mortality at 10 ul after 48 hr relative to control
[12] = test system: Leptinotarsa decemlineata; assay: Insecticidal activity against adult Leptinotarsa decemlineata infested potato leaves assessed as mortality at 10 ul after 24 hr relative to control
[13] = test system: Leptinotarsa decemlineata; assay: Insecticidal activity against adult Leptinotarsa decemlineata infested potato leaves assessed as mortality at 10 ul after 12 hr relative to control
[14] = test system: Leptinotarsa decemlineata; assay: Insecticidal activity against second-instar larval stage of Leptinotarsa decemlineata infested potato leaves assessed as mortality at 20 ul after 12 hr relative to control
[15] = test system: Leptinotarsa decemlineata; assay: Insecticidal activity against second-instar larval stage of Leptinotarsa decemlineata infested potato leaves assessed as mortality at 10 ul after 96 hr (reference value: 3.3 +/- 3.3%)
[16] = test system: Leptinotarsa decemlineata; assay: Insecticidal activity against second-instar larval stage of Leptinotarsa decemlineata infested potato leaves assessed as mortality at 10 ul after 48 hr (reference value: 3.3 +/- 3.3%)
[17] = test system: Leptinotarsa decemlineata; assay: Insecticidal activity against second-instar larval stage of Leptinotarsa decemlineata infested potato leaves assessed as mortality at 10 ul after 24 hr (reference value: 3.3 +/- 3.3%)
[18] = test system: Leptinotarsa decemlineata; assay: Insecticidal activity against first-instar larval stage of Leptinotarsa decemlineata infested potato leaves assessed as mortality at 20 ul after 96 hr relative to control
[19] = test system: Leptinotarsa decemlineata; assay: Insecticidal activity against first-instar larval stage of Leptinotarsa decemlineata infested potato leaves assessed as mortality at 20 ul after 48 hr relative to control
[20] = test system: Leptinotarsa decemlineata; assay: Insecticidal activity against first-instar larval stage of Leptinotarsa decemlineata infested potato leaves assessed as mortality at 20 ul after 24 hr relative to control
[21] = test system: Leptinotarsa decemlineata; assay: Insecticidal activity against first-instar larval stage of Leptinotarsa decemlineata infested potato leaves assessed as mortality at 20 ul after 12 hr relative to control
[22] = test system: Leptinotarsa decemlineata; assay: Insecticidal activity against first-instar larval stage of Leptinotarsa decemlineata infested potato leaves assessed as mortality at 10 ul after 96 hr relative to control
[23] = test system: Leptinotarsa decemlineata; assay: Insecticidal activity against first-instar larval stage of Leptinotarsa decemlineata infested potato leaves assessed as mortality at 10 ul after 48 hr relative to control
[24] = test system: Leptinotarsa decemlineata; assay: Insecticidal activity against first-instar larval stage of Leptinotarsa decemlineata infested potato leaves assessed as mortality at 10 ul after 12 hr relative to control
[25] = test system: Leptinotarsa decemlineata; assay: Insecticidal activity against first-instar larval stage of Leptinotarsa decemlineata infested potato leaves assessed as mortality at 10 ul after 24 hr relative to control
[26] = test system: Leptinotarsa decemlineata; assay: Insecticidal activity against third-instar larval stage of Leptinotarsa decemlineata infested potato leaves assessed as mortality at 20 ul after 96 hr (reference value: 3.3 +/- 3.3%)
[27] = test system: Leptinotarsa decemlineata; assay: Insecticidal activity against third-instar larval stage of Leptinotarsa decemlineata infested potato leaves assessed as mortality at 20 ul after 48 hr (reference value: 3.3 +/- 3.3%)
[28] = test system: Leptinotarsa decemlineata; assay: Insecticidal activity against third-instar larval stage of Leptinotarsa decemlineata infested potato leaves assessed as mortality at 20 ul after 24 hr relative to control
[29] = test system: Leptinotarsa decemlineata; assay: Insecticidal activity against third-instar larval stage of Leptinotarsa decemlineata infested potato leaves assessed as mortality at 20 ul after 12 hr relative to control
[30] = test system: Leptinotarsa decemlineata; assay: Insecticidal activity against third-instar larval stage of Leptinotarsa decemlineata infested potato leaves assessed as mortality at 10 ul after 96 hr (reference value: 3.3 +/- 3.3%)
[31] = test system: Leptinotarsa decemlineata; assay: Insecticidal activity against third-instar larval stage of Leptinotarsa decemlineata infested potato leaves assessed as mortality at 10 ul after 48 hr (reference value: 3.3 +/- 3.3%)
[32] = test system: Leptinotarsa decemlineata; assay: Insecticidal activity against third-instar larval stage of Leptinotarsa decemlineata infested potato leaves assessed as mortality at 10 ul after 24 hr relative to control
[33] = test system: Leptinotarsa decemlineata; assay: Insecticidal activity against third-instar larval stage of Leptinotarsa decemlineata infested potato leaves assessed as mortality at 10 ul after 12 hr relative to control

| Compound | mortality [1] | mortality [2] | mortality [3] | mortality [4] | mortality [5] | mortality [6] | mortality [7] | mortality [8] | mortality [9] | mortality [10] | mortality [11] | mortality [12] | mortality [13] | mortality [14] | mortality [15] | mortality [16] | mortality [17] | mortality [18] | mortality [19] | mortality [20] | other results |
| --- | --- | --- | --- | --- | --- | --- | --- | --- | --- | --- | --- | --- | --- | --- | --- | --- | --- | --- | --- | --- | --- |
| CC(C)=C1CC[C@@H](C)CC1=O [PULEGONE] | 90% | – | – | – | – | – | – | – | – | – | – | – | – | – | – | – | – | – | – | – | – |
| C=C(C)[C@H]1CC=C(C)CC1 [D-LIMONENE] | 90% | 90% | 80% | 80% | 53.3% | 100% | 100% | 100% | 90% | 100% | 100% | 100% | 83.3% | 76.7% | 93.3% | 90% | 86.7% | 90% | 80% | 76.7% | mortality [21]: 43.3%; mortality [22]: 90%; mortality [23]: 83.3%; mortality [24]: 23.3%; mortality [25]: 50%; mortality [26]: 70%; mortality [27]: 63.3%; mortality [28]: 60%; mortality [29]: 33.3%; mortality [30]: 53.3%; mortality [31]: 50%; mortality [32]: 46.7%; mortality [33]: 0% |
| CC(C)[C@H]1CC[C@H](C)CC1=O (relative stereo) [REL-MENTHONE] | 90% | 56.7% | 56.7% | 53.3% | 13.3% | 100% | 100% | 100% | 83.3% | 100% | 100% | 93.3% | 70% | 26.7% | 36.7% | 33.3% | 33.3% | 66.7% | 56.7% | 53.3% | mortality [21]: 26.7%; mortality [22]: 50%; mortality [23]: 40%; mortality [24]: 6.7%; mortality [25]: 23.3%; mortality [26]: 50%; mortality [27]: 43.3%; mortality [28]: 30%; mortality [29]: 23.3%; mortality [30]: 56.7%; mortality [31]: 53.3%; mortality [32]: 50%; mortality [33]: 30% |
